Laboratory results from ChEMBL document CHEMBL2396621, “Design, synthesis and biological evaluation of 2-mercapto-3-phenethylquinazoline bearing anilide fragments as potential antitumor agents: molecular docking study” (2013).

Key:
Type in all cases: functional
OVCAR-8 = assay: Cytotoxicity against human OVCAR8 cells assessed as growth inhibition at 10 uM after 48 hrs by coulter counter analysis; details: OVCAR-8, 48 h, read-out: GI
Malme-3M = assay: Cytotoxicity against human MALME-3M cells assessed as growth inhibition at 10 uM after 48 hrs by coulter counter analysis; details: read-out: GI
Hs-578T = assay: Cytotoxicity against human Hs578T cells assessed as growth inhibition at 10 uM after 48 hrs by coulter counter analysis; details: read-out: GI
OVCAR-4 = assay: Cytotoxicity against human OVCAR4 cells assessed as growth inhibition at 10 uM after 48 hrs by coulter counter analysis; details: OVCAR-4, 48 h, read-out: GI
RXF 393 = assay: Cytotoxicity against human RXF393 cells assessed as growth inhibition at 10 uM after 48 hrs by coulter counter analysis; details: RXF 393, 48 h, read-out: GI
IGROV-1 = assay: Cytotoxicity against human IGROV1 cells assessed as growth inhibition at 10 uM after 48 hrs by coulter counter analysis; details: IGROV-1, 48 h, read-out: GI
SK-OV-3 = assay: Cytotoxicity against human SKOV3 cells assessed as growth inhibition at 10 uM after 48 hrs by coulter counter analysis; details: SK-OV-3, 48 h, read-out: GI
SF-539 = assay: Cytotoxicity against human SF539 cells assessed as growth inhibition at 10 uM after 48 hrs by coulter counter analysis; details: SF-539, 48 h, read-out: GI
NCI-H23 = assay: Cytotoxicity against human NCI-H23 cells assessed as growth inhibition at 10 uM after 48 hrs by coulter counter analysis; details: NCI-H23, 48 h, read-out: GI
NCI-H322M = assay: Cytotoxicity against human NCI-H322M cells assessed as growth inhibition at 10 uM after 48 hrs by coulter counter analysis; details: read-out: GI
MDA-MB-435 = assay: Cytotoxicity against human MDA-MB-435 cells assessed as growth inhibition at 10 uM after 48 hrs by coulter counter analysis; details: MDA-MB-435, 48 h, read-out: GI
UACC-62 = assay: Cytotoxicity against human UACC62 cells assessed as growth inhibition at 10 uM after 48 hrs by coulter counter analysis; details: UACC-62, 48 h, read-out: GI
HOP-62 = assay: Cytotoxicity against human HOP62 cells assessed as growth inhibition at 10 uM after 48 hrs by coulter counter analysis; details: HOP-62, 48 h, read-out: GI
LOX IMVI = assay: Cytotoxicity against human LOXIMVI cells assessed as growth inhibition at 10 uM after 48 hrs by coulter counter analysis; details: read-out: GI
[1] = Cytotoxicity against human EKVX cells assessed as growth inhibition at 10 uM after 48 hrs by coulter counter analysis; details: read-out: GI
PC-3 = assay: Cytotoxicity against human PC3 cells assessed as growth inhibition at 10 uM after 48 hrs by coulter counter analysis; details: PC-3, 48 h, read-out: GI
KM12 = assay: Cytotoxicity against human KM12 cells assessed as growth inhibition at 10 uM after 48 hrs by coulter counter analysis; details: KM12, 48 h, read-out: GI
OVCAR-5 = assay: Cytotoxicity against human OVCAR5 cells assessed as growth inhibition at 10 uM after 48 hrs by coulter counter analysis; details: OVCAR-5, 48 h, read-out: GI
NCI-H226 = assay: Cytotoxicity against human NCI-H226 cells assessed as growth inhibition at 10 uM after 48 hrs by coulter counter analysis; details: NCI-H226, 48 h, read-out: GI
T47D = assay: Cytotoxicity against human T47D cells assessed as growth inhibition at 10 uM after 48 hrs by coulter counter analysis; details: read-out: GI
BT-549 = assay: Cytotoxicity against human BT549 cells assessed as growth inhibition at 10 uM after 48 hrs by coulter counter analysis; details: BT-549, 48 h, read-out: GI
UO-31 = assay: Cytotoxicity against human UO31 cells assessed as growth inhibition at 10 uM after 48 hrs by coulter counter analysis; details: UO-31, 48 h, read-out: GI
NCI-H460 = assay: Cytotoxicity against human NCI-H460 cells assessed as growth inhibition at 10 uM after 48 hrs by coulter counter analysis; details: NCI-H460, 48 h, read-out: GI
DU-145 = assay: Cytotoxicity against human DU145 cells assessed as growth inhibition at 10 uM after 48 hrs by coulter counter analysis; details: DU-145, 48 h, read-out: GI
SNB-19 = assay: Cytotoxicity against human SNB19 cells assessed as growth inhibition at 10 uM after 48 hrs by coulter counter analysis; details: SNB-19, 48 h, read-out: GI
A549 = assay: Cytotoxicity against human A549 cells assessed as growth inhibition at 10 uM after 48 hrs by coulter counter analysis; details: A549, 48 h, read-out: GI
UACC-257 = assay: Cytotoxicity against human UACC257 cells assessed as growth inhibition at 10 uM after 48 hrs by coulter counter analysis; details: UACC-257, 48 h, read-out: GI
A498 = assay: Cytotoxicity against human A498 cells assessed as growth inhibition at 10 uM after 48 hrs by coulter counter analysis; details: A498, 48 h, read-out: GI
MDA-MB-468 = assay: Cytotoxicity against human MDA-MB-468 cells assessed as growth inhibition at 10 uM after 48 hrs by coulter counter analysis; details: MDA-MB-468, 48 h, read-out: GI
SK-MEL-5 = assay: Cytotoxicity against human SK-MEL-5 cells assessed as growth inhibition at 10 uM after 48 hrs by coulter counter analysis; details: SK-MEL-5, 48 h, read-out: GI
HCT-116 = assay: Cytotoxicity against human HCT116 cells assessed as growth inhibition at 10 uM after 48 hrs by coulter counter analysis; details: HCT-116, 48 h, read-out: GI
SK-MEL-28 = assay: Cytotoxicity against human SK-MEL-28 cells assessed as growth inhibition at 10 uM after 48 hrs by coulter counter analysis; details: SK-MEL-28, 48 h, read-out: GI
M14 = assay: Cytotoxicity against human M14 cells assessed as growth inhibition at 10 uM after 48 hrs by coulter counter analysis; details: M14, 48 h, read-out: GI
SNB-75 = assay: Cytotoxicity against human SNB75 cells assessed as growth inhibition at 10 uM after 48 hrs by coulter counter analysis; details: SNB-75, 48 h, read-out: GI
COLO 205 = assay: Cytotoxicity against human COLO205 cells assessed as growth inhibition at 10 uM after 48 hrs by coulter counter analysis; details: COLO 205, 48 h, read-out: GI
SN12C = assay: Cytotoxicity against human SN12C cells assessed as growth inhibition at 10 uM after 48 hrs by coulter counter analysis; details: read-out: GI
786-0 = assay: Cytotoxicity against human 786-0 cells assessed as growth inhibition at 10 uM after 48 hrs by coulter counter analysis; details: 786-0, 48 h, read-out: GI

| Structure (SMILES) | inhibition of growth at 10 µM (OVCAR-8) | inhibition of growth at 10 µM (Malme-3M) | inhibition of growth at 10 µM (Hs-578T) | inhibition of growth at 10 µM (OVCAR-4) | inhibition of growth at 10 µM (RXF 393) | inhibition of growth at 10 µM (IGROV-1) | inhibition of growth at 10 µM (SK-OV-3) | inhibition of growth at 10 µM (SF-539) | inhibition of growth at 10 µM (NCI-H23) | inhibition of growth at 10 µM (NCI-H322M) | inhibition of growth at 10 µM (MDA-MB-435) | inhibition of growth at 10 µM (UACC-62) | inhibition of growth at 10 µM (HOP-62) | inhibition of growth at 10 µM (LOX IMVI) | inhibition of growth at 10 µM [1] | inhibition of growth at 10 µM (PC-3) | inhibition of growth at 10 µM (KM12) | inhibition of growth at 10 µM (OVCAR-5) | inhibition of growth at 10 µM (NCI-H226) | inhibition of growth at 10 µM (T47D) | further results |
| --- | --- | --- | --- | --- | --- | --- | --- | --- | --- | --- | --- | --- | --- | --- | --- | --- | --- | --- | --- | --- | --- |
| O=C(CSc1nc2ccccc2c(=O)n1CCc1ccccc1)Oc1ccc(Cl)cc1 | < 10% | < 10% | 41% | 59% | < 10% | 15% | 28% | < 10% | 25% | < 10% | < 10% | 11% | 10% | 14% | 28% | 25% | < 10% | < 10% | 13% | 14% | inhibition of growth at 10 µM (BT-549): 15%; inhibition of growth at 10 µM (UO-31): < 10%; inhibition of growth at 10 µM (NCI-H460): < 10%; inhibition of growth at 10 µM (DU-145): < 10%; inhibition of growth at 10 µM (SNB-19): < 10%; inhibition of growth at 10 µM (A549): < 10%; inhibition of growth at 10 µM (UACC-257): < 10%; inhibition of growth at 10 µM (A498): 10%; inhibition of growth at 10 µM (MDA-MB-468): < 10%; inhibition of growth at 10 µM (SK-MEL-5): < 10%; inhibition of growth at 10 µM (HCT-116): < 10%; inhibition of growth at 10 µM (SK-MEL-28): < 10%; inhibition of growth at 10 µM (M14): < 10%; inhibition of growth at 10 µM (SNB-75): 28%; inhibition of growth at 10 µM (COLO 205): < 10%; inhibition of growth at 10 µM (SN12C): < 10%; inhibition of growth at 10 µM (786-0): < 10% |
| CCOC(=O)c1ccc(NC(=O)CSc2nc3ccccc3c(=O)n2CCc2ccccc2)cc1 | 37% | 23% | 33% | 10% | 14% | 31% | 19% | < 10% | 13% | 23% | 16% | 29% | 45% | 22% | 34% | 10% | 11% | 15% | 25% | 17% | inhibition of growth at 10 µM (BT-549): 12%; inhibition of growth at 10 µM (UO-31): 10%; inhibition of growth at 10 µM (NCI-H460): 23%; inhibition of growth at 10 µM (DU-145): 10%; inhibition of growth at 10 µM (SNB-19): 36%; inhibition of growth at 10 µM (A549): 27%; inhibition of growth at 10 µM (UACC-257): 29%; inhibition of growth at 10 µM (A498): < 10%; inhibition of growth at 10 µM (MDA-MB-468): 18%; inhibition of growth at 10 µM (SK-MEL-5): 21%; inhibition of growth at 10 µM (HCT-116): 14%; inhibition of growth at 10 µM (SK-MEL-28): 14%; inhibition of growth at 10 µM (M14): 21%; inhibition of growth at 10 µM (SNB-75): 39%; inhibition of growth at 10 µM (COLO 205): 22%; inhibition of growth at 10 µM (SN12C): < 10%; inhibition of growth at 10 µM (786-0): < 10% |
